Laboratory results from ChEMBL document CHEMBL4706474, “Tetrahydro-2-naphthyl and 2-Indanyl Triazolopyrimidines Targeting Plasmodium falciparum Dihydroorotate Dehydrogenase Display Potent and Selective Antimalarial Activity” (J Med Chem, 2016).
Converted amounts (≈) assume the structure as drawn.

Columns and labels:
[1] = target: Cytochrome P450 2C19 (Homo sapiens, UniProt P33261); assay: Inhibition of CYP2C19 in human liver microsomes using isoform-specific probe substrates in presence of NADPH-generating system by LC-MS analysis; assay type: ADME
Chain of Cytochrome P450 2C19 (P33261 whole entry, canonical isoform): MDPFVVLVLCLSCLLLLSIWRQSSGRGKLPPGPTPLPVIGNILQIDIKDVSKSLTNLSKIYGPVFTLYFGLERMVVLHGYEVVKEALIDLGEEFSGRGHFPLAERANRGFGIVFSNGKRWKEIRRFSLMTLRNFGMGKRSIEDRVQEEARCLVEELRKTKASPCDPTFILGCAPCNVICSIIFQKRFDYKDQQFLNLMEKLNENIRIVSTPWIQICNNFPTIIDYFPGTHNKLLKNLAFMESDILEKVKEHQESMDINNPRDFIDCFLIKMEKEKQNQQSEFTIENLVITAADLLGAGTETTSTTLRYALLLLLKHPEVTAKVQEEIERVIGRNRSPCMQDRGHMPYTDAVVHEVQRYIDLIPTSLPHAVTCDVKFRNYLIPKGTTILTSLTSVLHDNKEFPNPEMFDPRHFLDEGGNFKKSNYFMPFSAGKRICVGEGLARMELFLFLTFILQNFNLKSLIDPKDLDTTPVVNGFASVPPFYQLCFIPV

[2] = Inhibition of N-terminal His6-tagged Plasmodium falciparum DHODH expressed in Escherichia coli BL21 using L-DHO as substrate and CoQ as co-substrate by DCIP dye based spectrophotometric assay
[3] = Inhibition of N-terminal His6-tagged Plasmodium vivax DHODH expressed in Escherichia coli BL21 using L-DHO as substrate and CoQ as co-substrate by DCIP dye based spectrophotometric assay
[4] = tested on: Plasmodium falciparum; assay: Antiplasmodial activity against Plasmodium falciparum 3D7 infected in RBC assessed as reduction in parasitemia incubated for 72 hrs by SYBR green dye-based assay; assay type: functional, organism-based; details: rbc
[5] = Inhibition of N-terminal His6-tagged dog DHODH expressed in Escherichia coli BL21 using L-DHO as substrate and CoQ as co-substrate by DCIP dye based spectrophotometric assay; set-up: species or system Canis lupus familiaris
[6] = Lipophilicity, logD of the compound at pH 7.4; assay type: physicochemical; details: buffer
[7] = Kinetic solubility of compound in phosphate buffer at pH 6.5 measured after 30 mins by HPLC-UV based analysis; assay type: physicochemical; details: phosphate buffer, pH 6.5, read-out: Kinetic_solubility
[8] = Protein binding in human plasma assessed as bound fraction by LC-MS analysis based ultracentrifugation assay; assay type: ADME, cell-free; details: read-out: PPB (converted)
[9] = Protein binding in rat plasma assessed as bound fraction by LC-MS analysis based ultracentrifugation assay; assay type: ADME, cell-free; details: read-out: PPB (converted)
[10] = Intrinsic clearance in human pooled liver microsomes assessed per mg protein at 1 uM by LC-MS analysis; assay type: ADME, Microsome; details: microsomes, 1 µM
[11] = Intrinsic clearance in rat liver microsomes assessed per mg protein at 1 uM by LC-MS analysis; assay type: ADME, Microsome; details: microsomes, 1 µM
[12] = Intrinsic clearance in mouse liver microsomes at 1 uM by LC-MS analysis; assay type: ADME, Microsome
[13] = Solubility of compound in FeSSIF at pH 5 measured after 5 to 6 hrs by HPLC-UV based analysis; assay type: physicochemical; details: simulated gi fluid, time 5-6 hrs
[14] = Tmax in Swiss mouse at 20 mg/kg, po administered as single dose via gavage measured over 24 hrs by LC-MS analysis; assay type: ADME, organism-based; details: in vivo
[15] = Apparent half-life in Swiss mouse at 20 mg/kg, po administered as single dose via gavage measured over 24 hrs by LC-MS analysis; assay type: ADME, organism-based; details: in vivo
[16] = Cmax in Swiss mouse at 20 mg/kg, po administered as single dose via gavage measured over 24 hrs by LC-MS analysis; assay type: ADME, organism-based; set-up: route oral, dose 20 mg/kg, time >24; details: in vivo
[17] = AUC (0 to infinity) in Swiss mouse at 20 mg/kg, po administered as single dose via gavage measured over 24 hrs by LC-MS analysis; assay type: ADME, organism-based; set-up: route oral, dose 20 mg/kg, time >24; details: in vivo
[18] = Unbound Cmax in Swiss mouse at 20 mg/kg, po administered as single dose via gavage measured over 24 hrs by LC-MS analysis; assay type: ADME, organism-based; details: in vivo
[19] = Unbound AUC (0 to infinity) in Swiss mouse at 20 mg/kg, po administered as single dose via gavage measured over 24 hrs by LC-MS analysis; assay type: ADME, organism-based; details: in vivo
[20] = Elimination half-life in Swiss mouse at 20 mg/kg, po administered as single dose via gavage measured over 24 hrs by LC-MS analysis; assay type: ADME, organism-based; details: in vivo, read-out: beta t1/2 (converted)
[21] = Apparent half-life in Sprague-Dawley rat at 1.9 mg/kg, iv administered as infusion for 10 mins by LC-MS analysis; assay type: ADME, organism-based; details: in vivo, read-out: t1/2(app) (converted)
[22] = AUC (0 to infinity) in Sprague-Dawley rat at 1.9 mg/kg, iv administered as infusion for 10 mins by LC-MS analysis; assay type: ADME, organism-based; set-up: route intravenous, dose 1.9 mg/kg, time 10 min; details: in vivo
[23] = Unbound clearance in Sprague-Dawley rat at 1.9 mg/kg, iv administered as infusion for 10 mins by LC-MS analysis; assay type: ADME, organism-based; details: in vivo
[24] = Volume of distribution at steady state in Sprague-Dawley rat at 1.9 mg/kg, iv administered as infusion for 10 mins by LC-MS analysis; assay type: ADME, organism-based; details: in vivo
[25] = Unbound volume of distribution at steady state in Sprague-Dawley rat at 1.9 mg/kg, iv administered as infusion for 10 mins by LC-MS analysis; assay type: ADME, organism-based; details: in vivo
[26] = Cmax in Sprague-Dawley rat at 18.2 mg/kg, po measured over 24 hrs by LC-MS analysis; assay type: ADME, organism-based; set-up: route oral, dose 18.2 mg/kg, time >24; details: in vivo
[27] = Unbound Cmax in Sprague-Dawley rat at 18.2 mg/kg, po measured over 24 hrs by LC-MS analysis; assay type: ADME, organism-based; details: in vivo
[28] = AUC (0 to infinity) in Sprague-Dawley rat at 18.2 mg/kg, po measured over 24 hrs by LC-MS analysis; assay type: ADME, organism-based; set-up: route oral, dose 18.2 mg/kg, time >24; details: in vivo
[29] = Unbound AUC (0 to infinity) in Sprague-Dawley rat at 18.2 mg/kg, po measured over 24 hrs by LC-MS analysis; assay type: ADME, organism-based; details: in vivo
[30] = Oral bioavailability in Sprague-Dawley rat at 18.2 mg/kg measured over 24 hrs by LC-MS analysis; assay type: ADME, organism-based; details: in vivo
[31] = tested on: Plasmodium falciparum; assay: Antiplasmodial activity against Plasmodium falciparum 3D7 infected in po dosed NSG mouse assessed as reduction in parasitemia administered once daily for 4 consecutive days starting from day 3 post-infection and measured 24 hrs post last dose by flow cytometric analysis; assay type: functional; details: 3D7, po, 96 h, time 4 day
[32] = Unbound AUC (0 to infinity) in Sprague-Dawley rat at 1.9 mg/kg, iv by LC-MS analysis; assay type: ADME, organism-based; details: in vivo
[33] = Protein binding in Swiss mouse plasma at 20 mg/kg, po administered as single dose via gavage measured over 24 hrs by LC-MS analysis; assay type: ADME, organism-based; details: read-out: PPB (converted)
[34] = Protein binding in Sprague-Dawley rat plasma at 1.9 mg/kg, iv administered as infusion for 10 mins by LC-MS analysis; assay type: ADME, organism-based; details: read-out: PPB (converted)
[35] = in vivo; details: Sprague-Dawley, rat, po, 18.2 mg/kg
[36] = Solubility of compound in FaSSIF at pH 6.5 measured after 5 to 6 hrs by HPLC-UV based analysis

## Cc1cc(NC2CCc3cc(Cl)ccc3C2)n2nc(C(C)(F)F)nc2n1 (stereo in doubt)
[1]
  IC50: > 20000 nM
[2]
  IC50: 3.7 nM
[3]
  IC50: 29 nM
[4]
  EC50: 3.8 nM
[5]
  IC50: > 100000 nM
[6]
  logD: 3.9
[7]
  solubility kinetic at 0.5 h: 3.1 µg/mL (≈ 8.2 µM)
[8]
  fraction unbound: 0.012
[9]
  fraction unbound: 0.008
[10]
  microsomal intrinsic clearance: < 7 µL/min
[11]
  Intrinsic clearance in rat liver microsomes (uL/min/mg protein): 33 µL/min
[12]
  intrinsic clearance: 44 µL/min
[13]
  solubility: 211 µg/mL (≈ 558 µM)
[14]
  Tmax: 1 h
[15]
  t1/2(app): 1.9 h
[16]
  Cmax: 7 µM
[17]
  AUC: 19.7 µM·h
[18]
  fCmax: 0.06 µM
[19]
  fAUC: 0.16 µM·h
[20]
  half-life: 2 h
[21]
  half-life: 7.1 h
[22]
  AUC(0-inf): 24 µM·h
[23]
  CL free: 438 mL/min/kg
[24]
  Vdss: 1.5 L/kg
[25]
  fVdss: 188 L/kg
[26]
  Cmax: 23.8 µM
[27]
  fCmax: 0.19 µM
[28]
  AUC(0-inf): 227 µM·h
[29]
  fAUC: 1.82 µM·h
[30]
  bioavailability: 100%
[31]
  ED90: > 30 mg/kg
[32]
  fAUC: 0.19 µM·h
[33]
  fraction unbound at 24 h: 0.008
[34]
  fraction unbound at 10 min: 0.008
[35]
  Tmax at 24 h: 4 h
[36]
  solubility: 47 µg/mL (≈ 124 µM)
